In publication PMC10098121, “Amphipathic barbiturates as marine product mimics with cytolytic and immunogenic effects on head and neck squamous cell carcinoma cell lines” (Frontiers in Pharmacology, 2023):
Read-outs that look alike come from different tables or passages of the source.

Columns and labels:
human red blood cells [1] = system: human red blood cells; parameters: method as in von Hofsten et al., 2022; conditions: highest concentration 500 μM; ref von Hofsten et al., 2022; read-out: EC50 hemolytic activity against human red blood cells; cited from earlier work
UT-SCC-24A = assay: High throughput drug screening (CellTiter-Glo, DSS); assay type: cell-based, human; conditions: for drug sensitivity score (DSS): 72 h, 10-100,000 nM, myogel, non-irradiated; for delta DSS (ΔDSS): DSS irradiated (2 Gy) minus DSS non-irradiated, >5 synergy, <–5 antagonism
Experimental: (§1) The MPMs were screened against a panel of […] different cell lines (HSC-3, UT-SCC-8, UT-SCC-24A, UT-SCC-24B, UT-SCC-42A, UT-SCC-42B and NOF) at the High Throughput Biomedicine Unit (HTB) at the Institute for Molecular Medicine Finland (FIMM). On day 1, black-walled 384-well plates were coated with 5 µl diluted myogel (0.5 mg/ml) per well using an automated reagent dispenser (MultiFlo FX, BioTek, Winooski, VT, United States). On day 2, 500 cells per well were seeded in 20 µl of complete media using the MultiFlo FX (BioTek), and the cells were left to adhere overnight. On day 3, the MPMs, cisplatin, DMSO and Benzethonium chloride were added to the cells using an automatic liquid handler (Echo 550, Labcyte Inc., San Jose, CA, United States). Cisplatin and the MPMs were added to yield five different concentrations in a ten-fold dilution series ranging from 10 to 100,000 nM. Each concentration was tested in triplicate wells. DMSO (0.1%) and benzethonium chloride (100 µM) served as negative and positive control, respectively. Three hours later, some of the plates were irradiated with 2 Gy in a gamma irradiator (OB29/4, STS, Braunschweig, Germany). All plates were taken to the irradiation room to ensure similar handling of the plates. 72 h later, the plates were cooled to room temperature before 25 µl of CellTiter-Glo 2.0 reagent (Promega, Madison, WI, USA) was added to each well using the MultiFlo FX (BioTek). Next, the plates were centrifuged for 5 min at 1,000 rpm before the luminescence signal was measured with the PHERAstar FS HT reader (BMG LABTECH GmbH, Ortenberg, Germany). The raw data was analyzed with the Breeze software (https://breeze.fmm.fi), which normalized the luminescence signal from treated cells against the signal from negative and positive control cells to calculate the percentage of inhibition and generate dose-response curves, which were then used to calculate drug sensitivity scores (DSS). The DSS is a parameter which combines the IC50, the slope of the dose-response curve, and the minimum and maximum responses into a single metric, as previously described ([Yadav et al., 2014]). Quality control was performed by calculation of the Z′-factor, which was >0.7 for all cell lines, indicating high quality of the assay ([Zhang et al., 1999]).

UT-SCC-24B = assay: as above; assay type: cell-based, human; conditions: for drug sensitivity score (DSS): 72 h, 10-100,000 nM, myogel, non-irradiated; for delta DSS (ΔDSS): DSS irradiated (2 Gy) minus DSS non-irradiated, >5 synergy, <–5 antagonism
Experimental: as §1

HSC-3 = assay: as above; assay type: cell-based, human; conditions: for drug sensitivity score (DSS): HSC-3, 72 h, 10-100,000 nM, myogel, non-irradiated; for delta DSS (ΔDSS): HSC-3, DSS irradiated (2 Gy) minus DSS non-irradiated, >5 synergy, <–5 antagonism
Experimental: as §1

UT-SCC-42A = assay: as above; assay type: cell-based, human; conditions: for drug sensitivity score (DSS): 72 h, 10-100,000 nM, myogel, non-irradiated; for delta DSS (ΔDSS): DSS irradiated (2 Gy) minus DSS non-irradiated, >5 synergy, <–5 antagonism
Experimental: as §1

UT-SCC-106A = assay: as above; assay type: cell-based, human; conditions: for drug sensitivity score (DSS): 72 h, 10-100,000 nM, myogel, non-irradiated; for delta DSS (ΔDSS): DSS irradiated (2 Gy) minus DSS non-irradiated, >5 synergy, <–5 antagonism
Experimental: as §1

UT-SCC-8 = assay: as above; assay type: cell-based, human; conditions: for drug sensitivity score (DSS): UT-SCC-8, 72 h, 10-100,000 nM, myogel, non-irradiated; for delta DSS (ΔDSS): UT-SCC-8, DSS irradiated (2 Gy) minus DSS non-irradiated, >5 synergy, <–5 antagonism
Experimental: as §1

UT-SCC-42B = assay: as above; assay type: cell-based, human; conditions: for drug sensitivity score (DSS): 72 h, 10-100,000 nM, myogel, non-irradiated; for delta DSS (ΔDSS): DSS irradiated (2 Gy) minus DSS non-irradiated, >5 synergy, <–5 antagonism
Experimental: as §1

[2] = system: NOF (normal oral fibroblasts); assay: as above; assay type: cell-based, human; conditions: for drug sensitivity score (DSS): 72 h, 10-100,000 nM, myogel, non-irradiated; for delta DSS (ΔDSS): DSS irradiated (2 Gy) minus DSS non-irradiated, >5 synergy, <–5 antagonism
Experimental: as §1

[3] = system: seven HNSCC cell lines and one normal oral fibroblast cell line (NOF); assay: High throughput drug screening, statements on the whole panel; assay type: cell-based, human; conditions: DSS
Experimental: as §1

human red blood cells [4] = assay: Hemolysis assay; assay type: cell-based; conditions: for EC50: Homo sapiens, Erythrocyte, 1 h, 37°C, highest concentration tested 500 μM, average of three experiments, read-out: EC50 hemolytic activity against human red blood cells
Experimental: The hemolytic effect of the MPMs was determined using a hemolysis assay as previously described ([Paulsen et al., 2021]). Briefly, hemolysis was determined using a heparinized fraction (10 IU/mL) of freshly drawn blood. The blood collected in ethylenediaminetetraacetic acid-containing test tubes (Vacutest, KIMA, Arzergrande, Italy) was used for the determination of the hematocrit (hct). The heparinized blood was washed 3 × with pre-warmed phosphate-buffered saline (PBS) and adjusted to a final hct of 4%. MPMs in DMSO (50 mM) were added to a 96-well polypropylene V-bottom plate (NUNC, Fisher Scientific, Oslo, Norway) and serially diluted. The test concentration range was 4–500 μM with DMSO contents ≤1%. A solution of 1% triton X-100 was used as a positive control for 100% hemolysis. As a negative control, a solution of 1% DMSO in PBS was included. Red blood cells (1% v/v final concentration) were added to the well plate and incubated at 37°C and 800 rpm for 1 h. After centrifugation (5 min, 3000 g), 100 μL from each well was transferred to a 96-well flat-bottomed microtiter plate, and absorbance was measured at 545 nm with a microplate reader (VersaMaxTM, Molecular Devices, Sunnyvale, CA, United States). The percentage of hemolysis was calculated as the ratio of the absorbance in the MPM treated and surfactant-treated samples, corrected for the PBS background. Three independent experiments were performed, and EC50 values are presented as averages.

Bacillus subtilis 168 = assay: Bacterial minimum inhibitory concentration (broth microdilution); assay type: cell-based; conditions: Bacillus subtilis 168, 48 h, 35 °C, di-TFA salts
Experimental: (§2) Method for determination of bacterial minimum inhibitory concentration (MIC) Stock solutions of the water-soluble compounds were prepared by dissolving them in ultrapure water (Milli-Q H2O, Millipore, MA, USA). The less water-soluble compounds were first dissolved in 25 - 50 µL 100% DMSO before further dilution with ultrapure water. The DMSO concentration was always less than 1% in the working concentration of each compound. A modified broth microdilution susceptibility test based on the CLSI M07-A9 protocol, [2] was used to determine minimal inhibitory concentrations (MIC). Briefly, the test compounds were two-fold diluted with ultrapure water in polystyrene 96-well flat-bottom microplates (NUNC, Roskilde, Denmark). The bacterial inoculum was diluted to 2.5 - 3 x 10^4 cells/mL in Mueller-Hinton broth (MHB, Difco Laboratories, USA) and added to the different diluted compounds in a ratio of 1:1. Positive control (ciprofloxacin, Sigma-Aldrich, USA), negative control (bacteria + water), and media control (media + water) were included in each experiment. The microplates were incubated for 48 h at 35 °C in an EnVision microplate reader (PerkinElmer, Waltham, MA, USA). The lowest concentration of compounds that caused no bacterial growth, as determined by optical density (OD600) measurements, was defined as the MIC value. All compounds were tested in 3 technical replicates.
(§3) Supplementary Video S1. HSC-3 cells were seeded at 100% confluence and a standard scratch wound migration assay was performed. The cells were imaged every 2 hours for 24 hours. The video

[5] = system: Escherichia coli ATCC 25922; assay: as above; assay type: cell-based; conditions: ATCC25922; Escherichia coli ATCC 25922, 48 h, 35 °C, di-TFA salts
Experimental: as §2, §3

[6] = system: Pseudomonas aeruginosa ATCC 27853; assay: as above; assay type: cell-based; conditions: ATCC27853; Pseudomonas aeruginosa ATCC 27853, 48 h, 35 °C, di-TFA salts
Experimental: as §2, §3

[7] = system: Staphylococcus aureus ATCC 9144; assay: as above; assay type: cell-based; conditions: ATCC9144; Staphylococcus aureus ATCC 9144, 48 h, 35 °C, di-TFA salts
Experimental: as §2, §3

Compound	drug sensitivity score (DSS) (UT-SCC-24A)	delta DSS (ΔDSS) (UT-SCC-24A)	drug sensitivity score (DSS) (UT-SCC-24B)	delta DSS (ΔDSS) (UT-SCC-24B)	drug sensitivity score (DSS) (HSC-3)	delta DSS (ΔDSS) (HSC-3)	drug sensitivity score (DSS) (UT-SCC-42A)	delta DSS (ΔDSS) (UT-SCC-42A)	drug sensitivity score (DSS) (UT-SCC-106A)	delta DSS (ΔDSS) (UT-SCC-106A)	drug sensitivity score (DSS) (UT-SCC-8)	delta DSS (ΔDSS) (UT-SCC-8)	drug sensitivity score (DSS) (UT-SCC-42B)	delta DSS (ΔDSS) (UT-SCC-42B)	drug sensitivity score (DSS) [2]	delta DSS (ΔDSS) [2]	EC50 (human red blood cells [4]) [µM]	MIC (Bacillus subtilis 168) [µg/mL]	MIC [5] [µg/mL]	MIC [6] [µg/mL]	also measured
NCCCCN1C(=O)N(CCCCN)C(=O)C(CCCc2ccccc2)(CCCc2ccccc2)C1=O [MPM-1]	6,9	-1,1	9,7	0,5	8,8	0	8,4	-0,8	10,3	0,3	10	-0,8	7,4	0,6	17,1	0,4					EC50 (human red blood cells [1]): > 500 µM; selectivity for cancer cell lines over NOFs (in words) ([3]; cancer lines and NOFs cultured in different media): slight tendency towards selectivity for the NOFs, which was especially prominent for MPM-1
CN(C)CCN1C(=O)N(CCN(C)C)C(=O)C(CCCc2ccccc2)(CCCc2ccccc2)C1=O [MPM-2:2]	18,1	-0,4	17,8	-1,5	16,8	1,4	13,4	0,9	18,6	-1,5	17	0,2	12,9	-0,4	19,2	-1,2	> 500	32	32	> 64	MIC [7]: > 64 µg/mL
NCCCN1C(=O)N(CCCN)C(=O)C(CCCc2ccccc2)(CCCc2ccccc2)C1=O [MPM-3:0]	14,3	-1,8	18	-0,6	16,1	0	11,7	-1,1	17,1	-0,6	16,5	-0,6	10,1	-0,1	18,3	-0,6	> 500	16	64	64	MIC [7]: 32 µg/mL
CNCCCCN1C(=O)N(CCCCNC)C(=O)C(CCCc2ccccc2)(CCCc2ccccc2)C1=O [MPM-4:1]	15,5	-1,6	16,4	-0,5	14,8	-0,4	9,9	-0,1	15,8	-0,8	14,5	0,6	10,2	-1,1	18,5	-0,8	> 500	8	> 64	> 64	MIC [7]: 32 µg/mL
C[N+](C)(C)CCCCN1C(=O)N(CCCC[N+](C)(C)C)C(=O)C(CCCc2ccccc2)(CCCc2ccccc2)C1=O [MPM-4:3]	0	0	0	0,1	0	0	0,1	0	0,5	-0,5	0	0	0,1	-0,1	2,2	-1,4	> 500	> 64	64	> 64	MIC [7]: 64 µg/mL; potency / effect on viability over the cell line panel (in words) ([3]; 72 h): completely inactive
NCCCCCN1C(=O)N(CCCCCN)C(=O)C(CCCc2ccccc2)(CCCc2ccccc2)C1=O [MPM-5:0]	17,4	-1,2	18,2	-0,5	17,6	0,2	13,5	-0,8	17,9	-1	18,1	0,4	11,5	-0,5	19	-1,2	313	4	32	32	hemolytic activity against red blood cells (in words) (human red blood cells [4]; test range 4–500 μM): the second lowest RBC EC50; MIC [7]: 8 µg/mL
